From patent US20040147434A1, “Use of enzyme inhibitors of the dipeptidypeptidase iv (ec3.3.14.5) in addition to the aminopeptidase n (ec 3.4.11.2), individually or in a combination thereof, and pharmaceutical preparations thereof for the prevention and/or therapy of ischaemia-caused acute and chronic neurodegenerative process …” (priority 2001, published 2004)

Experiments:
[1] = system: peripheric mononuclear cells (MNC) or T lymphocytes; conditions: simultaneous and separate administration of inhibitors of DP IV and APN; cited from earlier work
hippocampal neurons = experiment: Neuroprotection in organotypical hippocampus slices after 40 min oxygen and glucose deprivation (propidium iodide fluorescence); assay type: cell-based, rat; conditions: exclusively actinonine (10 μm), 24 h before, during and 24 h after ischemia; n=5 experiments
Procedure: FIG. 2: Protective effect of inhibitors of DP IV (I63) and APN (actinonine) on the survival of hippocampal neurons after a transient deprivation of oxygen and glucose: There are shown in the FIG. transmission photographs (respective left sides) and fluorescence photographs (respective right sides) of hippocampus slices 24 h after an experimental ischemia. The intensity of the red fluorescence corresponds to the neuronal cell damage (B, D). The slices shown in FIGS. 2A and 2B were subjected to a 40 min deprivation of oxygen and glucose in the absence of DP IV or APN inhibitors. […] The protective effect occurring at a simultaneous application of I63 and actinonine is significant (P=0,0000; calculated by means of a two side heteroscedastic t test) and is about 62%.
Organotypical hippocampus slices were prepared and cultivated according to Striggow F et al. (Striggow, F, Riek M, Breder J, Henrich-Noak P, Reymann K G, Reiser G (2000). The protease thrombin is an endogenous mediator of hippocampal neuroprotection against ischemia at low concentrations but causes degeneration at high concentrations. Proc. Natl. Acad. Sci. (USA) 97: 2264-2269). […] Only after said time, there occurrs a characteristic red fluorescence, the intensity of which is proportional to the neuronal cell damage. […]

Structure (SMILES)	DNA synthesis and proliferation of human immune cells [1]	protective effect on the survival of hippocampal neurons after transient ischemia (hippocampal neurons)
N[C@@H](CCCCNC(=O)OCc1ccc([N+](=O)[O-])cc1)C(=O)N1CCSC1 [I49, Lys[Z(NO2)] thiazolidide]	inhibited	–
CCCCC[C@H](CC(=O)NO)C(=O)N[C@H](C(=O)N1CCC[C@H]1CO)C(C)C [actinonine]	inhibited	about 34%
